# Measurements published in patent US12459922B2 (Gilead Sciences, Inc., priority 2022, dated 2025).
# System: endogenous cellular STAT1 (phosphorylated at Tyr701) in NCI-H1373 cells
# Assay: Phospho-STAT1 (Tyr701) LANCE Ultra TR-FRET Detection Assay
# Format: cell-based
# Conditions: Homo sapiens, NCI-H1373, 48 h, phospho-STAT1 (Tyr701) induction, read-out: NH1373 pSTAT1 EC50
row,Compound,EC50 [µM]
1,"COc1ncc(-c2cc3ccn(C[C@@H]4CCC[C@H](Nc5cn[nH]c(=O)c5C(F)(F)F)C4)c(=O)c3cc2F)nc1N [Example 263, 6-(6-amino-5-methoxypyrazin-2-yl)-7-fluoro-2-(((1R,3S)-3-((6-oxo-5-(trifluoromethyl)-1,6-dihydropyridazin-4-yl)amino)cyclohexyl)methyl)isoquinolin-1(2H)-one]",0.122
2,"Nc1nc(-c2cc3ccn(C[C@@H]4CCC[C@H](Nc5cn[nH]c(=O)c5C(F)(F)F)C4)c(=O)c3cc2F)cnc1C(F)F [Example 264, 6-(6-amino-5-(difluoromethyl)pyrazin-2-yl)-7-fluoro-2-(((1R,3S)-3-((6-oxo-5-(trifluoromethyl)-1,6-dihydropyridazin-4-yl)amino)cyclohexyl)methyl)isoquinolin-1(2H)-one]",0.0761
3,"Nc1nc(-c2cc3ncn(C[C@@H]4CCC[C@H](Nc5cn[nH]c(=O)c5C(F)(F)F)C4)c(=O)c3cc2F)ncc1OC(F)F [Example 265, 7-(4-amino-5-(difluoromethoxy)pyrimidin-2-yl)-6-fluoro-3-(((1R,3S)-3-((6-oxo-5-(trifluoromethyl)-1,6-dihydropyridazin-4-yl)amino)cyclohexyl)methyl)quinazolin-4(3H)-one]",0.0523
4,"O=c1[nH]ncc(N[C@H]2CCC[C@@H](Cn3ccc4cc(-c5ccc(C(F)(F)F)cn5)c(F)cc4c3=O)C2)c1C(F)(F)F [Example 268, 7-fluoro-2-(((1R,3S)-3-((6-oxo-5-(trifluoromethyl)-1,6-dihydropyridazin-4-yl)amino)cyclohexyl)methyl)-6-(5-(trifluoromethyl)pyridin-2-yl)isoquinolin-1(2H)-one]",0.013
5,"Nc1nc(-c2cc3ccn(C[C@@H]4CCC[C@H](Nc5cn[nH]c(=O)c5C(F)(F)F)C4)c(=O)c3cc2F)ccc1C(F)F [Example 269, 6-(6-amino-5-(difluoromethyl)pyridin-2-yl)-7-fluoro-2-(((1R,3S)-3-((6-oxo-5-(trifluoromethyl)-1,6-dihydropyridazin-4-yl)amino)cyclohexyl)methyl)isoquinolin-1(2H)-one]",0.0543
6,"Nc1cc(-c2cc3ccn(C[C@@H]4CCC[C@H](Nc5cn[nH]c(=O)c5C(F)(F)F)C4)c(=O)c3cc2F)cnc1C(F)(F)F [Example 271, 6-(5-amino-6-(trifluoromethyl)pyridin-3-yl)-7-fluoro-2-(((1R,3S)-3-((6-oxo-5-(trifluoromethyl)-1,6-dihydropyridazin-4-yl)amino)cyclohexyl)methyl)isoquinolin-1(2H)-one]",0.211

# Further lines, results first:
row,EC50 [µM],Compound
1,0.193,"Cc1ncc(-c2cc3ccn(C[C@@H]4CCC[C@H](Nc5cn[nH]c(=O)c5C(F)(F)F)C4)c(=O)c3cc2F)nc1N [Example 262, 6-(6-amino-5-methylpyrazin-2-yl)-7-fluoro-2-(((1R,3S)-3-((6-oxo-5-(trifluoromethyl)-1,6-dihydropyridazin-4-yl)amino)cyclohexyl)methyl)isoquinolin-1(2H)-one]"
2,0.187,"O=c1[nH]ncc(N[C@H]2CCC[C@@H](Cn3ccc4cc(-c5cnc(C6COC6)cn5)c(F)cc4c3=O)C2)c1C(F)(F)F [Example 266, 7-fluoro-6-(5-(oxetan-3-yl)pyrazin-2-yl)-2-(((1R,3S)-3-((6-oxo-5-(trifluoromethyl)-1,6-dihydropyridazin-4-yl)amino)cyclohexyl)methyl)isoquinolin-1(2H)-one]"
3,0.0802,"CC(C)(O)c1cnc(-c2cc3ccn(C[C@@H]4CCC[C@H](Nc5cn[nH]c(=O)c5C(F)(F)F)C4)c(=O)c3cc2F)cn1 [Example 267, 7-fluoro-6-(5-(2-hydroxypropan-2-yl)pyrazin-2-yl)-2-(((1R,3S)-3-((6-oxo-5-(trifluoromethyl)-1,6-dihydropyridazin-4-yl)amino)cyclohexyl)methyl)isoquinolin-1(2H)-one]"
4,0.149,"O=c1[nH]ncc(N[C@H]2CCC[C@@H](Cn3ccc4cc(-c5cnc(C6CC6)cn5)c(F)cc4c3=O)C2)c1C(F)(F)F [Example 270, 6-(5-cyclopropylpyrazin-2-yl)-7-fluoro-2-(((1R,3S)-3-((6-oxo-5-(trifluoromethyl)-1,6-dihydropyridazin-4-yl)amino)cyclohexyl)methyl)isoquinolin-1(2H)-one]"
